Measured values published in PubChem BioAssay AID248 (DTP/NCI, 2004).
Several values for one entry are separate records, joined by “and”; a condition that tells them apart may be missing. Equal entries are not always repeated. Inconclusive results and toxic doses are left out. Cut-off read from the data, not from the text of the source: active = T/C of 150% or more; inactive = T/C below 125%.

System: L1210 leukemia ip in BDF1 mice, survival T/C
Assay: NCI In Vivo Anticancer Drug Screen. Data for tumor model L1210 Leukemia (intraperitoneal) in B6D2F1 (BDF1) mice
Conditions: endpoint: mean survival time, higher = longer survival
Summary of the method: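 Read-out is survival time, reported as the treated-group measurement over the vehicle-control measurement.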

[1] = dose: 5.0 mg/kg/injection, schedule: Q01DX001 (ip), vehicle: saline
[2] = dose: 10.0 mg/kg/injection, schedule: Q01DX001 (ip), vehicle: saline
[3] = dose: 20.0 mg/kg/injection, schedule: Q01DX001 (ip), vehicle: saline
[4] = dose: 100.0 mg/kg/injection, schedule: Q01DX001 (ip), vehicle: saline
[5] = dose: 200.0 mg/kg/injection, schedule: Q01DX001 (ip), vehicle: saline
[6] = dose: 12.5 mg/kg/injection, schedule: Q01DX009 (ip), vehicle: saline
[7] = dose: 400.0 mg/kg/injection, schedule: Q01DX001 (ip), vehicle: saline
[8] = dose: 100.0 mg/kg/injection, schedule: Q04DX003 (ip), vehicle: Klucel (hydroxypropylcellulose) (HPC)
[9] = dose: 200.0 mg/kg/injection, schedule: Q04DX003 (ip), vehicle: Klucel (hydroxypropylcellulose) (HPC)
[10] = dose: 400.0 mg/kg/injection, schedule: Q04DX003 (ip), vehicle: Klucel (hydroxypropylcellulose) (HPC)

Measured: T/C

O=C(O)C1=CC2C=C(Cl)C=CC2OC1=O (stereo not given)
inactive: [1] 95 % of control | [2] 93 % of control | [3] 96 % of control | dose: 40.0 mg/kg/injection, schedule: Q01DX001 (ip), vehicle: saline 96 % of control | dose: 80.0 mg/kg/injection, schedule: Q01DX001 (ip), vehicle: saline 96 % of control | [4] 111 % of control | [5] 100 % of control

CC(C)N(CCNCC(Cc1ccccc1)c1ccccc1)C(C)C (stereo not given)
inactive: dose: 25.0 mg/kg/injection, schedule: Q04DX002 (ip), vehicle: saline with Tween-80 99 % of control | dose: 50.0 mg/kg/injection, schedule: Q04DX002 (ip), vehicle: saline with Tween-80 96 % of control | dose: 100.0 mg/kg/injection, schedule: Q04DX002 (ip), vehicle: saline with Tween-80 102 % of control

CCCP(C)(C)=S
inactive: dose: 100.0 mg/kg/injection, schedule: Q04DX002 (ip), vehicle: Klucel (hydroxypropylcellulose) (HPC) 90 % of control | dose: 200.0 mg/kg/injection, schedule: Q04DX002 (ip), vehicle: Klucel (hydroxypropylcellulose) (HPC) 90 % of control

O=C1NC2(c3ccccc3)CCCCC2O1 (stereo not given)
inactive: dose: 75.0 mg/kg/injection, schedule: Q01DX001 (ip), vehicle: acetone 98 % of control and 92 % of control | dose: 150.0 mg/kg/injection, schedule: Q01DX001 (ip), vehicle: acetone 102 % of control | dose: 300.0 mg/kg/injection, schedule: Q01DX001 (ip), vehicle: acetone 100 % of control and 89 % of control

O=S1(=O)CC(Cl)C(Cl)C1 (stereo not given)
inactive: dose: 1.56 mg/kg/injection, schedule: Q01DX009 (ip), vehicle: saline 90 % of control | dose: 3.12 mg/kg/injection, schedule: Q01DX009 (ip), vehicle: saline 91 % of control | dose: 6.25 mg/kg/injection, schedule: Q01DX009 (ip), vehicle: saline 91 % of control | dose: 12.5 mg/kg/injection, schedule: Q01DX001 (ip), vehicle: other 94 % of control | dose: 12.5 mg/kg/injection, schedule: Q01DX001 (ip), vehicle: saline with Tween-80 98 % of control | dose: 12.5 mg/kg/injection, schedule: Q01DX009 (ip), vehicle: other 90 % of control | [6] 98 % of control | dose: 12.5 mg/kg/injection, schedule: Q04DX003 (ip), vehicle: Klucel (hydroxypropylcellulose) (HPC) 106 % of control | dose: 25.0 mg/kg/injection, schedule: Q01DX001 (ip), vehicle: other 95 % of control | dose: 25.0 mg/kg/injection, schedule: Q01DX001 (ip), vehicle: saline with Tween-80 100 % of control | dose: 25.0 mg/kg/injection, schedule: Q04DX003 (ip), vehicle: Klucel (hydroxypropylcellulose) (HPC) 108 % of control | dose: 25.0 mg/kg/injection, schedule: Q04DX003 (ip), vehicle: saline with Tween-80 101 % of control | dose: 50.0 mg/kg/injection, schedule: Q01DX001 (ip), vehicle: other 95 % of control | dose: 50.0 mg/kg/injection, schedule: Q04DX003 (ip), vehicle: Klucel (hydroxypropylcellulose) (HPC) 92 % of control | dose: 50.0 mg/kg/injection, schedule: Q04DX003 (ip), vehicle: saline with Tween-80 90 % of control

ICCC(c1ccccc1)(c1ccccc1)c1ccccc1
inactive: dose: 50.0 mg/kg/injection, schedule: Q01DX001 (ip), vehicle: saline 108 % of control | [4] 96 % of control | [5] 96 % of control | [7] 96 % of control

CC(CCOC(=O)c1ccccc1)OC(=O)c1ccccc1 (stereo not given)
inactive: [4] 92 % of control | [5] 121 % of control | [7] 105 % of control

N#Cc1c(-c2ccc(Cl)cc2)n(O)c2ccccc12
inactive: [4] 96 % of control | [5] 100 % of control | [7] 96 % of control

O=S1(=O)CCCC(c2ccccc2)=C1c1ccccc1
inactive: dose: 50.0 mg/kg/injection, schedule: Q01DX009 (ip), vehicle: Klucel (hydroxypropylcellulose) (HPC) 102 % of control | dose: 100.0 mg/kg/injection, schedule: Q01DX009 (ip), vehicle: Klucel (hydroxypropylcellulose) (HPC) 105 % of control | dose: 200.0 mg/kg/injection, schedule: Q01DX009 (ip), vehicle: Klucel (hydroxypropylcellulose) (HPC) 91 % of control

NC(c1ccccc1)C1C(c2ccccc2)N1C1CCCCC1 (stereo not given)
inactive: [8] 95 % of control | [9] 86 % of control | [10] 98 % of control

CCCCCCC(C)O[Si](C)OCC (stereo not given)
inactive: dose: 100.0 mg/kg/injection, schedule: Q04DX003 (ip), vehicle: saline with Tween-80 95 % of control | dose: 200.0 mg/kg/injection, schedule: Q04DX003 (ip), vehicle: saline with Tween-80 101 % of control | dose: 400.0 mg/kg/injection, schedule: Q04DX003 (ip), vehicle: saline with Tween-80 96 % of control

CCCCCCCCCCCC[N+](C)(C)Cc1cc(=O)c(O)co1
inactive: dose: 12.5 mg/kg/injection, schedule: Q04DX002 (ip), vehicle: saline 94 % of control | dose: 25.0 mg/kg/injection, schedule: Q04DX002 (ip), vehicle: saline 105 % of control | dose: 50.0 mg/kg/injection, schedule: Q04DX002 (ip), vehicle: saline 115 % of control

CNC(=O)Oc1cccc(CN(C)C)c1
inactive: [1] 98 % of control | [2] 96 % of control | [3] 96 % of control

COc1ccc(C(O)C(C)N)cc1 (stereo not given)
inactive: dose: 75.0 mg/kg/injection, schedule: Q01DX001 (ip), vehicle: saline 96 % of control | dose: 150.0 mg/kg/injection, schedule: Q01DX001 (ip), vehicle: saline 96 % of control

CCOC(=O)CCC(NC(=O)c1ccc(I)cc1)C(=O)OCC (stereo not given)
inactive: [8] 94 % of control | [9] 96 % of control | [10] 102 % of control

CN1Cc2cc3cc(c2O)C[N+](C)(C)Cc2c(Cl)c(c(Cl)c(c2Cl)C[N+](C)(C)C3)C1
inactive: [6] 98 % of control | dose: 12.5 mg/kg/injection, schedule: Q04DX003 (ip), vehicle: saline 97 % of control | dose: 25.0 mg/kg/injection, schedule: Q01DX009 (ip), vehicle: saline 98 % of control | dose: 25.0 mg/kg/injection, schedule: Q04DX003 (ip), vehicle: saline 97 % of control | dose: 50.0 mg/kg/injection, schedule: Q04DX003 (ip), vehicle: saline 92 % of control
